# Assay results published in patent US20240254087A1, “SELECTIVE, PARTIAL, AND ARRESTIN-BIASED 5-HT2A AGONISTS WITH UTILITY IN VARIOUS DISORDERS” (Saint Joseph's University, priority 2021, published 2024).
# Where two headings read alike, the source gives them in different places. Starred links: 1 amine or outer side, 2 acyl side, 3 side chain; linkers in the order of their positions; H or OH if unused. Positions of bridges follow the written chain, without caps; N, C: chain ends. Non-standard residues stand in square brackets, D forms with d. Residues, ends and D or L forms follow the SMILES beside them. X1 = CC(=O)NC(C(=O)OC(C(C)C)C(N[*:1])C(=O)[*:2])C(O)C(C)C; PhLac = O=C(O)[CH](O)Cc1ccccc1; NMeT = CN[CH](C(=O)O)[CH](C)O; NMeA = CN[CH](C)C(=O)O; NMeDha = C=C(NC)C(=O)O
# Experiments:
# [1] = test system: male C57BL/6J mice; test: Tolerance: DOI-induced HTR after 5 days repeated treatment; assay type: in vivo, mouse; details: 5 days SC: 25N-N1-Nap 20, DOI 10, pimavanserin 1 mg/kg/day
# Description: (§1) The mice were allowed to recover from the magnet implantation surgeries for at least 1 week prior to behavioral testing. HTR experiments were conducted in a well-lit room, and the mice were allowed to habituate to the room for at least 1 h prior to testing. Head twitches was assessed in a 12-cm diameter glass cylinder surrounded by a magnetometer coil. Coil voltage was low-pass filtered (2 kHz), amplified, and digitized (20-kHz sampling rate) using a Powerlab/8SP with LabChart v 7.3.2 (ADInstruments, Colorado Springs, CO, USA). […] HTR counts were analyzed using one-way ANOVAs. Dunnett's test was used for post hoc comparisons.
# [2] = molecular target: T1, 5-HT2A (Homo sapiens, UniProt P28223); test: cell-based; parameters: expressed in transfected cells; host or cells: HEK293T, transient
# T1 sequence (P28223 whole entry): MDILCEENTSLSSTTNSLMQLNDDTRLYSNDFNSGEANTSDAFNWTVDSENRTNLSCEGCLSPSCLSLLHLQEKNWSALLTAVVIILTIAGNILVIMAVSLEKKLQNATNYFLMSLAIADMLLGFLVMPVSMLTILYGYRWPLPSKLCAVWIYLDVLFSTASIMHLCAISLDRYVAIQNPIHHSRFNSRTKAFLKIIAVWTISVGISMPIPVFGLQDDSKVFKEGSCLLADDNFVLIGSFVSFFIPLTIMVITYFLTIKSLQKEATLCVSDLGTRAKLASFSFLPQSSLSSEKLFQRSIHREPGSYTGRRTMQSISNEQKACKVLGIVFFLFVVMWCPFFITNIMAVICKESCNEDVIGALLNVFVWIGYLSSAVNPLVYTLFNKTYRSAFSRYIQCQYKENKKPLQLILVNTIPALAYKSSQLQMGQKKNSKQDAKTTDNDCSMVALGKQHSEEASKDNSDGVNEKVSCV
# [3] = test system: male C57BL/6J mice; test: Head-twitch response (HTR) in mice; assay type: in vivo, mouse; details: for ED50: Mus musculus
# Summary of the method: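 Head twitches in male C57BL/6J mice (6-8 weeks) carrying head-mounted magnets were detected with a magnetometer coil around a 12-cm glass cylinder during the dark phase. Coil signal was low-pass filtered at 2 kHz and digitized at 20 kHz. Counts were analyzed by one-way ANOVA with Dunnett's post hoc test.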
# [4] = molecular target: T1, 5-HT2A; test: cell-based; parameters: expressed in transfected cells; host or cells: HEK293T, transient; details: BRET, mean ± SEM; hydrochloride
# [5] = molecular target: 5-HT2B (Homo sapiens, UniProt P41595); test: BRET Gq dissociation, 5-HT2B; assay type: cell-based; parameters: expressed in transfected cells; host or cells: HEK293T, transient
# Chain of 5-HT2B (P41595 whole entry): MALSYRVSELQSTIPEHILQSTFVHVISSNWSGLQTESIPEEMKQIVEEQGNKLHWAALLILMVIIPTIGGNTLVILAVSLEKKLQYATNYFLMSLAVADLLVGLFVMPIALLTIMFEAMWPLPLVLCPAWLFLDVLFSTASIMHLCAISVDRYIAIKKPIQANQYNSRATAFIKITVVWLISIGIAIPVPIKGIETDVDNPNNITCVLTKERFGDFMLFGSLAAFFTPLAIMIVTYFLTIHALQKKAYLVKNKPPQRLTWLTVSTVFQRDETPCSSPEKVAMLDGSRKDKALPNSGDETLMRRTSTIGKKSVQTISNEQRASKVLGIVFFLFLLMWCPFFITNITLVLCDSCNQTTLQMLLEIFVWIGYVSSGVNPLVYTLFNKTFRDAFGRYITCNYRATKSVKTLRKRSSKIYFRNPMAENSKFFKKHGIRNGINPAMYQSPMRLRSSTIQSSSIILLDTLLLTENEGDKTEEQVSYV
# [6] = molecular target: T2, 5-HT2C (Homo sapiens, UniProt P28335); test: BRET Gq dissociation, 5-HT2C; assay type: cell-based; parameters: expressed in transfected cells; host or cells: HEK293T, transient
# T2 sequence (P28335 33-458): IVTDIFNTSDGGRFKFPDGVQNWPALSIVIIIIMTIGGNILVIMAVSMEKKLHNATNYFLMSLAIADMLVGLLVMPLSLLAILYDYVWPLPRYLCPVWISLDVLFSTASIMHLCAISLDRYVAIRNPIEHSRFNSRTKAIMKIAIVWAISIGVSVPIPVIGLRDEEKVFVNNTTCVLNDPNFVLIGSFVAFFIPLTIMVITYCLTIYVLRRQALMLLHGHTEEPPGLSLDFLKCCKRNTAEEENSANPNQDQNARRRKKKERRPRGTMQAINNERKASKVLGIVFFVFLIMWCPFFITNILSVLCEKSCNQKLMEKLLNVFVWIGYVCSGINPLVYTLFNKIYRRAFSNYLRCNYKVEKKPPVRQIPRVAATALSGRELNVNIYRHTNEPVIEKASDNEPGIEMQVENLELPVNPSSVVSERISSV
# [7] = molecular target: T1, 5-HT2A; test: NanoLuc internalization assay; assay type: cell-based; details: 60 min
# [8] = molecular target: T1, 5-HT2A; details: cited from earlier work
# [9] = test system: male C57BL/6J mice; test: Blockade of agonist-induced HTR by pretreatment; assay type: in vivo, mouse; details: C57BL/6J mice; pretreatment with Gq/11 or phospholipase C inhibitor
# Description: Vehicle or the NMDA receptor antagonist PCP (5 mg/kg) was injected IP 10 min after SC administration of vehicle or 25N-NB1-Nap (16), and then the mice were placed in the test chambers 10 min later for a 60-min assessment of locomotor activity. (C). […] Mice were treated with vehicle or M100907 (0.03 mg/kg SC) 10 min prior to vehicle or PCP (5 mg/kg IP): animals were placed in the test chambers 10 min after treatment with PCP.
# Male C57BL/6J mice (6-8 weeks old) from Jackson Labs (Bar Harbor, ME, USA) were used for the behavioral experiments. The mice were housed on a reversed light-dark cycle (lights on at 1900 h, off at 0700 h) in an AAAC-approved vivarium at the University of California San Diego. Mice were housed up to four per cage in a climate-controlled room and with food and water provided ad libitum except during behavioral testing. Testing was performed between 1000 and 1800 h (during the dark phase of the light-dark cycle). The studies were conducted in accordance with National Institutes Health (NIH) guidelines and were approved by the University of California San Diego Institutional Animal Care and Use Committee.
# as §1
compound,measurement,setting,value
CC(C)COc1ccc(CNC(=O)N(Cc2ccc(F)cc2)C2CCN(C)CC2)cc1 [Pimavanserin],Ability of DOI (1 mg/kg IP) to induce the HTR after repeated daily treatment,[1],not altered
"COc1cc(CC(C)N)c(OC)cc1I.Cl (racemic) [(±)-DOI, (±)-2,5-dimethoxy-4-iodoamphetamine hydrochloride, reference compound]",Emax,"[2]; read-out: 5-HT2A β-arrestin Emax (% 5-HT), BRET, mean ± SEM",88.8 ± 1.9%
same,Ability of DOI (1 mg/kg IP) to induce the HTR after repeated daily treatment,[1],reduced significantly
same,Max HTR response during a 30-min assessment (maximum counts ÷ baseline response),[3],9.9-fold increase
same,ED50,"[3]; read-out: HTR ED50 μmol/kg (95% CI), SC, except DOI and 25D-NBOMe IP",0.8 µmol/kg
same,ED50,"[3]; read-out: HTR ED50 mg/kg (95% CI), SC, except DOI and 25D-NBOMe IP",0.29 mg/kg
same,5-HT2A Gq Emax (% 5-HT),[4],108.2 ± 4.2 % 5-HT
same,EC50,[5],12.6 nM
same,Emax,[5]; read-out: 5-HT2B Gq Dissociation (BRET) EMAX ± SEM (%5-HT),103 ± 2.8%
same,EC50,[6],0.832 nM
same,Emax,[6]; read-out: 5-HT2C Gq Dissociation (BRET) EMAX ± SEM (%5-HT),114 ± 3.4%
same,Internalization of 5-HT2A receptors,[7],strong internalization
same,Emax in a 5-HT2A-Gq calcium flux assay,[8],81.3%
"CCN(CC)C(=O)[C@@H]1C=C2c3cccc4[nH]cc(c34)C[C@H]2N(C)C1 [LSD, reference compound]",5-HT2A β-arrestin Emax (% 5-HT),"[2]; BRET, mean ± SEM",85 ± 3 % 5-HT
same,Emax in a 5-HT2A-Gq calcium flux assay,[8],84.6%
"C=C1C(=O)NC(C)C(=O)N(C)C(C)C(=O)NC(C(OC(=O)C(NC(C)=O)C(O)C(C)C)C(C)C)C(=O)N(C)C(C(C)OC)C(=O)OC(C)C(NC(C)=O)C(=O)OC(Cc2ccccc2)C(=O)N1C (stereo not shown) [YM-254,890, reference compound] (Ac-T[PhLac][NMeDha]A[NMeA][X1][NMeT](Me); ester 1-C; configuration not given here)",Blockade of the HTR induced by (+/−)-DOI and 25N-NBOMe,[9],blocked
